The subject of one data set is Botrytis cinerea. As to the kind of experiment: Test A: preventive spray on tomato seedlings, Botrytis cinerea (gray mold), visual disease rating. It counts as in vivo. As to conditions: 96 h, 100 = 100% disease control, 0 = no control relative to controls, unmarked values. The method in brief:
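Tomato seedlings sprayed to run-off with 40 ppm or 10 ppm suspensions (160 or 40 g ai/ha) in acetone/water with 250 ppm surfactant. Inoculated with B. cinerea spores next day, held saturated at 20 °C for 48 h, then 27 °C for 2 days. Visual rating, 0–100% disease control relative to controls.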

The term pest or weed control denotes how far the test organism was held down. The low end stands for weak suppression, the high end for strong suppression. Broadly, the melting point is the temperature, or range, at which the solid turns liquid. As to `Cn1cc(C(=O)Nc2ccccc2-c2ccc(-n3ccc(C(F)(F)F)n3)nn2)c(C(F)F)n1` [Compound 54, 3-(difluoromethyl)-1-methyl-N-[2-[6-[3-(trifluoromethyl)-1H-pyrazol-1-yl]-3-pyridazinyl]phenyl]-1H-pyrazole-4-carboxamide], the melting point was 248 to 250 °C. In the data set on Botrytis cinerea, this compound displayed a pest or weed control at 40 µg/mL, 160 g/ha of 0%.
Taken in the same sequence, the figures for `O=C(Nc1ccccc1-c1cnc(-n2ccc(C(F)(F)F)n2)nc1)c1ncccc1C(F)(F)F` [Compound 56, 3-(trifluoromethyl)-N-[2-[2-[3-(trifluoromethyl)-1H-pyrazol-1-yl]-5-pyrimidinyl]phenyl]-2-pyridinecarboxamide] were 178 to 180 °C and 16%.
In the case of `Cn1cc(C(=O)Nc2ccccc2-c2cnc(-n3ccc(C(F)(F)F)n3)nc2)c(C(F)F)n1` [Compound 58, 3-(difluoromethyl)-1-methyl-N-[2-[2-[3-(trifluoromethyl)-1H-pyrazol-1-yl]-5-pyrimidinyl]phenyl]-1H-pyrazole-4-carboxamide], the melting point was in the range of 167 to 169 °C. Moreover, the pest or weed control at 40 µg/mL, 160 g/ha in the data set on Botrytis cinerea is 0%.
